Assay results published in PMC2931804 (Clinical cancer research : an official journal of the …, 2010).
Read-outs that look alike come from different tables or passages of the source.

[1] = DL3 800 mg twice daily × 3 + sLV5FU2, Any cycle, n = 3
[2] = DL3 1,000 mg once daily × 3 + sLV5FU2, 1st cycle, n = 3
[3] = DL3 1,000 mg once daily × 3 + sLV5FU2, Any cycle, n = 3
[4] = DL4 1,200 mg once daily × 3 + sLV5FU2, 1st cycle, n = 3
[5] = DL4 1,200 mg once daily × 3 + sLV5FU2, Any cycle, n = 3
[6] = DL5 1,400 mg once daily × 3 + sLV5FU2, 1st cycle, n = 3
[7] = DL5 1,400 mg once daily × 3 + sLV5FU2, Any cycle, n = 3
[8] = DL6 1,700 mg once daily × 3 + sLV5FU2, 1st cycle, n = 6
[9] = DL6 1,700 mg once daily × 3 + sLV5FU2, Any cycle, n = 6
[10] = DL7 2,000 mg once daily × 3 + sLV5FU2, 1st cycle, n = 3
[11] = DL7 2,000 mg once daily × 3 + sLV5FU2, Any cycle, n = 3

O=C(CCCCCCC(=O)Nc1ccccc1)NO [vorinostat, suberoylanilide hydroxamic acid]
Nausea, treatment-related, patients (G2/G3/G4) [1]: 0/0/0
Neutropenia, treatment-related, patients (G2/G3/G4) [1]: 2/0/0
Thrombocytopenia, treatment-related, patients (G2/G3/G4) [1]: 2/1/0
VTE, treatment-related, patients (G2/G3/G4) [1]: 0/0/1
Vomiting, treatment-related, patients (G2/G3/G4) [1]: 0/0/0
Anemia, treatment-related, patients (G2/G3/G4) [2]: 1/0/0
Anorexia, treatment-related, patients (G2/G3/G4) [2]: 0/0/0
DVT/PE, treatment-related, patients (G2/G3/G4) [2]: 0/0/0
Dehydration, treatment-related, patients (G2/G3/G4) [2]: 0/0/0
Diarrhea, treatment-related, patients (G2/G3/G4) [2]: 0/0/0
Fatigue, treatment-related, patients (G2/G3/G4) [2]: 1/0/0
GI bleed, treatment-related, patients (G2/G3/G4) [2]: 0/0/0
Hand and Foot, treatment-related, patients (G2/G3/G4) [2]: 0/0/0
Infection, treatment-related, patients (G2/G3/G4) [2]: 0/0/0
Mucositis, treatment-related, patients (G2/G3/G4) [2]: 0/0/0
Nausea, treatment-related, patients (G2/G3/G4) [2]: 0/0/0
Neutropenia, treatment-related, patients (G2/G3/G4) [2]: 0/0/0
Thrombocytopenia, treatment-related, patients (G2/G3/G4) [2]: 0/0/0
Vomiting, treatment-related, patients (G2/G3/G4) [2]: 0/0/0
Weight Loss, treatment-related, patients (G2/G3/G4) [2]: 0/0/0
Anemia, treatment-related, patients (G2/G3/G4) [3]: 1/0/0
Anorexia, treatment-related, patients (G2/G3/G4) [3]: 0/0/0
DVT/PE, treatment-related, patients (G2/G3/G4) [3]: 0/0/0
Dehydration, treatment-related, patients (G2/G3/G4) [3]: 0/0/0
Diarrhea, treatment-related, patients (G2/G3/G4) [3]: 0/0/0
Fatigue, treatment-related, patients (G2/G3/G4) [3]: 2/0/0
GI bleed, treatment-related, patients (G2/G3/G4) [3]: 0/0/0
Hand and Foot, treatment-related, patients (G2/G3/G4) [3]: 0/0/0
Infection, treatment-related, patients (G2/G3/G4) [3]: 0/0/0
Mucositis, treatment-related, patients (G2/G3/G4) [3]: 1/0/0
Nausea, treatment-related, patients (G2/G3/G4) [3]: 0/0/0
Neutropenia, treatment-related, patients (G2/G3/G4) [3]: 0/0/0
Thrombocytopenia, treatment-related, patients (G2/G3/G4) [3]: 0/0/0
Vomiting, treatment-related, patients (G2/G3/G4) [3]: 0/0/0
Weight Loss, treatment-related, patients (G2/G3/G4) [3]: 0/0/0
Anemia, treatment-related, patients (G2/G3/G4) [4]: 0/0/0
Anorexia, treatment-related, patients (G2/G3/G4) [4]: 0/0/0
DVT/PE, treatment-related, patients (G2/G3/G4) [4]: 0/0/0
Dehydration, treatment-related, patients (G2/G3/G4) [4]: 0/0/0
Diarrhea, treatment-related, patients (G2/G3/G4) [4]: 0/0/0
Fatigue, treatment-related, patients (G2/G3/G4) [4]: 2/0/0
GI bleed, treatment-related, patients (G2/G3/G4) [4]: 0/0/0
Hand and Foot, treatment-related, patients (G2/G3/G4) [4]: 0/0/0
Infection, treatment-related, patients (G2/G3/G4) [4]: 0/0/0
Mucositis, treatment-related, patients (G2/G3/G4) [4]: 0/0/0
Nausea, treatment-related, patients (G2/G3/G4) [4]: 0/0/0
Neutropenia, treatment-related, patients (G2/G3/G4) [4]: 0/0/0
Thrombocytopenia, treatment-related, patients (G2/G3/G4) [4]: 0/0/0
Vomiting, treatment-related, patients (G2/G3/G4) [4]: 1/0/0
Weight Loss, treatment-related, patients (G2/G3/G4) [4]: 0/0/0
Anemia, treatment-related, patients (G2/G3/G4) [5]: 0/0/0
Anorexia, treatment-related, patients (G2/G3/G4) [5]: 1/0/0
DVT/PE, treatment-related, patients (G2/G3/G4) [5]: 0/1/0
Dehydration, treatment-related, patients (G2/G3/G4) [5]: 0/0/0
Diarrhea, treatment-related, patients (G2/G3/G4) [5]: 0/1/0
Fatigue, treatment-related, patients (G2/G3/G4) [5]: 2/0/0
GI bleed, treatment-related, patients (G2/G3/G4) [5]: 0/0/0
Hand and Foot, treatment-related, patients (G2/G3/G4) [5]: 0/0/0
Infection, treatment-related, patients (G2/G3/G4) [5]: 0/0/0
Mucositis, treatment-related, patients (G2/G3/G4) [5]: 0/0/0
Nausea, treatment-related, patients (G2/G3/G4) [5]: 1/0/0
Neutropenia, treatment-related, patients (G2/G3/G4) [5]: 0/0/0
Thrombocytopenia, treatment-related, patients (G2/G3/G4) [5]: 0/0/0
Vomiting, treatment-related, patients (G2/G3/G4) [5]: 2/0/0
Weight Loss, treatment-related, patients (G2/G3/G4) [5]: 1/0/0
Anemia, treatment-related, patients (G2/G3/G4) [6]: 0/0/0
Anorexia, treatment-related, patients (G2/G3/G4) [6]: 0/0/0
DVT/PE, treatment-related, patients (G2/G3/G4) [6]: 0/0/0
Dehydration, treatment-related, patients (G2/G3/G4) [6]: 0/0/0
Diarrhea, treatment-related, patients (G2/G3/G4) [6]: 0/0/0
Fatigue, treatment-related, patients (G2/G3/G4) [6]: 0/0/0
GI bleed, treatment-related, patients (G2/G3/G4) [6]: 0/0/0
Hand and Foot, treatment-related, patients (G2/G3/G4) [6]: 0/0/0
Infection, treatment-related, patients (G2/G3/G4) [6]: 0/0/0
Mucositis, treatment-related, patients (G2/G3/G4) [6]: 0/0/0
Nausea, treatment-related, patients (G2/G3/G4) [6]: 0/0/0
Neutropenia, treatment-related, patients (G2/G3/G4) [6]: 1/0/0
Thrombocytopenia, treatment-related, patients (G2/G3/G4) [6]: 0/0/0
Vomiting, treatment-related, patients (G2/G3/G4) [6]: 0/0/0
Weight Loss, treatment-related, patients (G2/G3/G4) [6]: 0/0/0
Anemia, treatment-related, patients (G2/G3/G4) [7]: 1/0/0
Anorexia, treatment-related, patients (G2/G3/G4) [7]: 1/0/0
DVT/PE, treatment-related, patients (G2/G3/G4) [7]: 0/0/0
Dehydration, treatment-related, patients (G2/G3/G4) [7]: 0/0/0
Diarrhea, treatment-related, patients (G2/G3/G4) [7]: 2/0/0
Fatigue, treatment-related, patients (G2/G3/G4) [7]: 2/0/0
GI bleed, treatment-related, patients (G2/G3/G4) [7]: 0/0/0
Hand and Foot, treatment-related, patients (G2/G3/G4) [7]: 0/0/0
Infection, treatment-related, patients (G2/G3/G4) [7]: 0/0/0
Mucositis, treatment-related, patients (G2/G3/G4) [7]: 0/0/0
Nausea, treatment-related, patients (G2/G3/G4) [7]: 0/0/0
Neutropenia, treatment-related, patients (G2/G3/G4) [7]: 0/1/0
Thrombocytopenia, treatment-related, patients (G2/G3/G4) [7]: 0/0/0
Vomiting, treatment-related, patients (G2/G3/G4) [7]: 1/0/0
Weight Loss, treatment-related, patients (G2/G3/G4) [7]: 1/0/0
Anemia, treatment-related, patients (G2/G3/G4) [8]: 0/0/0
Anorexia, treatment-related, patients (G2/G3/G4) [8]: 2/0/0
DVT/PE, treatment-related, patients (G2/G3/G4) [8]: 0/0/0
Dehydration, treatment-related, patients (G2/G3/G4) [8]: 0/0/0
Diarrhea, treatment-related, patients (G2/G3/G4) [8]: 0/1/0
Fatigue, treatment-related, patients (G2/G3/G4) [8]: 3/0/0
GI bleed, treatment-related, patients (G2/G3/G4) [8]: 0/0/0
Hand and Foot, treatment-related, patients (G2/G3/G4) [8]: 0/0/0
Infection, treatment-related, patients (G2/G3/G4) [8]: 0/0/0
Mucositis, treatment-related, patients (G2/G3/G4) [8]: 0/0/0
Nausea, treatment-related, patients (G2/G3/G4) [8]: 2/0/0
Neutropenia, treatment-related, patients (G2/G3/G4) [8]: 0/0/0
Thrombocytopenia, treatment-related, patients (G2/G3/G4) [8]: 0/0/0
Vomiting, treatment-related, patients (G2/G3/G4) [8]: 0/0/0
Weight Loss, treatment-related, patients (G2/G3/G4) [8]: 0/0/0
Anemia, treatment-related, patients (G2/G3/G4) [9]: 2/1/0
DVT/PE, treatment-related, patients (G2/G3/G4) [9]: 0/1/0
Dehydration, treatment-related, patients (G2/G3/G4) [9]: 2/1/0
Diarrhea, treatment-related, patients (G2/G3/G4) [9]: 3/2/0
Fatigue, treatment-related, patients (G2/G3/G4) [9]: 6/0/0
GI bleed, treatment-related, patients (G2/G3/G4) [9]: 0/0/0
Hand and Foot, treatment-related, patients (G2/G3/G4) [9]: 0/0/0
Infection, treatment-related, patients (G2/G3/G4) [9]: 0/2/0
Mucositis, treatment-related, patients (G2/G3/G4) [9]: 1/1/0
Neutropenia, treatment-related, patients (G2/G3/G4) [9]: 1/0/0
Thrombocytopenia, treatment-related, patients (G2/G3/G4) [9]: 1/0/0
Vomiting, treatment-related, patients (G2/G3/G4) [9]: 3/3/0
Weight Loss, treatment-related, patients (G2/G3/G4) [9]: 0/0/0
Patients with DLT (DL6 1,700 mg once daily × 3 + sLV5FU2, six patients): None
Anemia, treatment-related, patients (G2/G3/G4) [10]: 0/2/0
Anorexia, treatment-related, patients (G2/G3/G4) [10]: 1/0/0
DVT/PE, treatment-related, patients (G2/G3/G4) [10]: 0/0/0
Dehydration, treatment-related, patients (G2/G3/G4) [10]: 1/0/0
Diarrhea, treatment-related, patients (G2/G3/G4) [10]: 0/0/0
GI bleed, treatment-related, patients (G2/G3/G4) [10]: 0/1/0
Infection, treatment-related, patients (G2/G3/G4) [10]: 0/0/0
Mucositis, treatment-related, patients (G2/G3/G4) [10]: 0/0/0
Nausea, treatment-related, patients (G2/G3/G4) [10]: 1/0/0
Neutropenia, treatment-related, patients (G2/G3/G4) [10]: 1/0/0
Thrombocytopenia, treatment-related, patients (G2/G3/G4) [10]: 0/1/0
Vomiting, treatment-related, patients (G2/G3/G4) [10]: 0/0/0
Weight Loss, treatment-related, patients (G2/G3/G4) [10]: 0/0/0
Anemia, treatment-related, patients (G2/G3/G4) [11]: 0/2/0
Anorexia, treatment-related, patients (G2/G3/G4) [11]: 2/0/0
DVT/PE, treatment-related, patients (G2/G3/G4) [11]: 0/0/0
Dehydration, treatment-related, patients (G2/G3/G4) [11]: 1/1/0
Diarrhea, treatment-related, patients (G2/G3/G4) [11]: 0/0/0
Fatigue, treatment-related, patients (G2/G3/G4) [11]: 0/2/0
GI bleed, treatment-related, patients (G2/G3/G4) [11]: 0/1/0
Hand and Foot, treatment-related, patients (G2/G3/G4) [11]: 0/1/0
Infection, treatment-related, patients (G2/G3/G4) [11]: 0/0/0
Mucositis, treatment-related, patients (G2/G3/G4) [11]: 0/0/0
Nausea, treatment-related, patients (G2/G3/G4) [11]: 2/0/0
Neutropenia, treatment-related, patients (G2/G3/G4) [11]: 1/0/0
Thrombocytopenia, treatment-related, patients (G2/G3/G4) [11]: 0/1/0
Vomiting, treatment-related, patients (G2/G3/G4) [11]: 0/0/0
Weight Loss, treatment-related, patients (G2/G3/G4) [11]: 0/0/0
DLT (once-daily dose levels 1 through 6, three patients each): without any DLT
MTD of vorinostat, once-daily schedule (orally once daily × 3 days every 2 weeks, in combination with sLV5FU2): 1,700 mg
MTD of vorinostat, twice-daily schedule (orally twice daily × 3 days every 2 weeks, in combination with sLV5FU2): 600 mg
